The results in this text go back to patent US4742047A, “Semi-synthetic peptide antibiotics” (Bristol-Myers Company, priority 1986, dated 1988).

For one data set, the system named is P388 leukemia. Put plainly: Antitumor effect against in vivo murine transplantable P388 leukemia. More on the design: species or system mice. The protocol:
(§1) Antitumor activity of representative compounds of the present invention was determined using in vivo murine transplantable P388 leukemia and B16 melanoma models.
P388 leukemia: female CDF1 and male BDF1 mice were inoculated by intraperitoneal injection of 0.8 ml diluted ascitic fluid containing 10^6 cells.
(§2) Test materials were dissolved in 0.9% saline containing 10% dimethyl sulfoxide and graded doses of them were administered to mice intraperitoneally 24 hrs after tumor implantation. Two dosing schedules were used for the p388 leukemia experiment: once daily on day 1 through day 3 (QD 1→3); and once daily on day 1 through day 9 (QD 1→9). The QD 1→9 schedule was used for the B16 melanoma experiment.
(§3) Antitumor activity is evaluated as the increase in mediam survival time (MST) of treated (T) and control (C) animals for various dosage regimens expressed as a percentage ratio (T/C %=MST of treated.div.MST of control×100). For both in vivo P388 leukemia and in vivo B16 melanoma models, values for percentage ratios of 125 and above indicate significant antitumor effect.

The test system of another data set is B16 melanoma. Put plainly: Antitumor effect against in vivo murine B16 melanoma. More on the design: species or system mice. The following applies: QD 1→9 ip. The protocol: as §1
B16 melanoma; male BDF1 mice were implanted with 0.5 ml of a 10% tumor brei intraperitoneally.
as §2, §3

In another data set the test system is ddy mice. The following applies: single intraperitoneal administration. The method, then:
The acute toxicity for compounds of Examples 1, 2, and 3 was determined in ddy mice by single intraperitoneal administration.

The term LD50 denotes the dose expected to kill half of the subjects tested. A higher LD50 goes with lower toxicity.

Where only a bound is given, the exact number is not on record here.

With `CCCCCCCCCC=CC=CC(=O)NC(C(=O)NC1CC(O)CCNC(=O)C=CC(C)NC1=O)C(C)O` (stereo not drawn) [BU-2867T C, reference compound], the “MST (% T/C)” value was found to be 130 % T/C in the data set on P388 leukemia (0.13 mg/kg/day, QD 1→9 ip); 160 % T/C with P388 leukemia (0.25 mg/kg/day, QD 1→9 ip); 155 % T/C in the data set on P388 leukemia (0.5 mg/kg/day, QD 1→9 ip); 115 % T/C in the data set with P388 leukemia (0.63 mg/kg/day, QD 1→9 ip); 124 % T/C with P388 leukemia (1 mg/kg/day, QD 1→3 ip); 170 % T/C in the data set on P388 leukemia (1 mg/kg/day, QD 1→9 ip). The “MST (% T/C)” value in the data set with P388 leukemia (2 mg/kg/day, QD 1→9 ip) amounted to 205 % T/C; in the data set with P388 leukemia (3 mg/kg/day, QD 1→3 ip), 129 % T/C; in the data set on P388 leukemia (4 mg/kg/day, QD 1→9 ip) it was 65 % T/C; in the data set with P388 leukemia (10 mg/kg/day, QD 1→3 ip) it was 57 % T/C; with B16 melanoma (1 mg/kg/day), 113 % T/C; in the data set with B16 melanoma (2 mg/kg/day) it was 132 % T/C. The “MST (% T/C)” value in the data set on B16 melanoma (4 mg/kg/day) was “Tox”; with B16 melanoma (.13 mg/kg/day) it was 103 % T/C; in the data set on B16 melanoma (.25 mg/kg/day) it was 103 % T/C; in the data set with B16 melanoma (.5 mg/kg/day) it was 103 % T/C.
Regarding `CCCCCCCCOc1ccc(C(=O)N[C@H](C(=O)NC2CC(O)CCNC(=O)/C=C/C(C)NC2=O)[C@@H](C)O)cc1` (stereo partly drawn) [Example 6, p-n-Octyloxybenzoyl-III], the “MST (% T/C)” value in the data set on P388 leukemia (0.13 mg/kg/day, QD 1→9 ip) is recorded as 140 % T/C; with P388 leukemia (0.25 mg/kg/day, QD 1→9 ip) it was 150 % T/C; in the data set with P388 leukemia (0.5 mg/kg/day, QD 1→9 ip) it was 155 % T/C; in the data set with P388 leukemia (0.63 mg/kg/day, QD 1→9 ip) it was 120 % T/C; in the data set with P388 leukemia (1 mg/kg/day, QD 1→3 ip), 150 % T/C; with P388 leukemia (1 mg/kg/day, QD 1→9 ip), “Tox”. Also, the “MST (% T/C)” value in the data set on P388 leukemia (3 mg/kg/day, QD 1→3 ip) is listed as “Tox”; with P388 leukemia (.3 mg/kg/day, QD 1→3 ip), 125 % T/C.
As to `CCCCCCCCCC(=O)N[C@H](C(=O)NC1CC(O)CCNC(=O)/C=C/C(C)NC1=O)[C@@H](C)O` (stereo partly drawn) [Example 2, n-Decanoyl-III], the “MST (% T/C)” value in the data set with P388 leukemia (0.13 mg/kg/day, QD 1→9 ip) came to 109 % T/C; in the data set on P388 leukemia (0.25 mg/kg/day, QD 1→9 ip) it was 123 % T/C; in the data set with P388 leukemia (0.5 mg/kg/day, QD 1→9 ip) it was 123 % T/C; with P388 leukemia (1 mg/kg/day, QD 1→3 ip), 123 % T/C; in the data set on P388 leukemia (1 mg/kg/day, QD 1→9 ip), 127 % T/C; in the data set with P388 leukemia (2 mg/kg/day, QD 1→9 ip) it was 145 % T/C. Moreover, the “MST (% T/C)” value in the data set with P388 leukemia (3 mg/kg/day, QD 1→3 ip) amounted to 127 % T/C; with P388 leukemia (4 mg/kg/day, QD 1→9 ip) it was 155 % T/C; with P388 leukemia (10 mg/kg/day, QD 1→3 ip) it was 64 % T/C. This molecule had a 50% lethal dose (LD50) in the data set on ddy mice of 50 mg/kg.
Regarding `CCCCCCCCCCCCCCCC(=O)N[C@H](C(=O)NC1CC(O)CCNC(=O)/C=C/C(C)NC1=O)[C@@H](C)O` (stereo partly drawn) [Example 10, Palmitoyl-L-Threonyl-II], the “MST (% T/C)” value in the data set with P388 leukemia (1 mg/kg/day, QD 1→3 ip) worked out at 114 % T/C; with P388 leukemia (3 mg/kg/day, QD 1→3 ip) it was 119 % T/C; in the data set on P388 leukemia (10 mg/kg/day, QD 1→3 ip), 138 % T/C.
Consider `CCCCCCCC=CC=CC(=O)NC(C(=O)NC1CC(O)CCNC(=O)C=CC(C)NC1=O)C(C)O` (stereo not drawn) [BU-2867T A, reference compound], for which the “MST (% T/C)” value stood at 130 % T/C in the data set with P388 leukemia (0.13 mg/kg/day, QD 1→9 ip); 150 % T/C in the data set with P388 leukemia (0.25 mg/kg/day, QD 1→9 ip); 155 % T/C in the data set with P388 leukemia (0.5 mg/kg/day, QD 1→9 ip); 110 % T/C in the data set with P388 leukemia (0.63 mg/kg/day, QD 1→9 ip); 145 % T/C in the data set on P388 leukemia (1 mg/kg/day, QD 1→3 ip); 190 % T/C with P388 leukemia (1 mg/kg/day, QD 1→9 ip). Moreover, the “MST (% T/C)” value in the data set on P388 leukemia (2 mg/kg/day, QD 1→9 ip) was “Tox”; in the data set with P388 leukemia (3 mg/kg/day, QD 1→3 ip) it was “Tox”; with P388 leukemia (.3 mg/kg/day, QD 1→3 ip), 130 % T/C; with B16 melanoma (1 mg/kg/day), 116 % T/C; in the data set with B16 melanoma (2 mg/kg/day), “Tox”; in the data set with B16 melanoma (.13 mg/kg/day), 97 % T/C. In addition, the “MST (% T/C)” value with B16 melanoma (.25 mg/kg/day) is given as 100 % T/C; in the data set on B16 melanoma (.5 mg/kg/day) it was 113 % T/C.
For the molecule `CCCCCCCCCCCCCC(=O)N[C@H](C(=O)NC1CC(O)CCNC(=O)/C=C/C(C)NC1=O)[C@@H](C)O` (stereo partly drawn) [Example 3, n-Tetradecanoyl-III], the “MST (% T/C)” value in the data set on P388 leukemia (0.13 mg/kg/day, QD 1→9 ip) was found to be 118 % T/C; in the data set on P388 leukemia (0.25 mg/kg/day, QD 1→9 ip), 132 % T/C; in the data set with P388 leukemia (0.5 mg/kg/day, QD 1→9 ip) it was 132 % T/C; in the data set with P388 leukemia (1 mg/kg/day, QD 1→3 ip), 127 % T/C; in the data set with P388 leukemia (1 mg/kg/day, QD 1→9 ip), 150 % T/C; with P388 leukemia (2 mg/kg/day, QD 1→9 ip) it was 150 % T/C. For the same molecule, the “MST (% T/C)” value was found to be 132 % T/C in the data set with P388 leukemia (3 mg/kg/day, QD 1→3 ip); 159 % T/C in the data set with P388 leukemia (4 mg/kg/day, QD 1→9 ip); 55 % T/C with P388 leukemia (10 mg/kg/day, QD 1→3 ip); 116 % T/C in the data set with B16 melanoma (1 mg/kg/day); 124 % T/C in the data set with B16 melanoma (2 mg/kg/day); 145 % T/C in the data set on B16 melanoma (4 mg/kg/day). Moreover, the “MST (% T/C)” value in the data set with B16 melanoma (.25 mg/kg/day) and in the data set on B16 melanoma (.5 mg/kg/day) was 113 % T/C throughout. In addition, the LD50 in the data set with ddy mice is listed as above 25 mg/kg.
With `CCCCCCCCCCCCCCC(O)C(=O)N[C@H](C(=O)NC1CC(O)CCNC(=O)/C=C/C(C)NC1=O)[C@@H](C)O` (stereo partly drawn) [Example 5, 2-Hydroxy-hexadecanoyl-III], the “MST (% T/C)” value in the data set with P388 leukemia (1 mg/kg/day, QD 1→3 ip) came out at 118 % T/C; in the data set with P388 leukemia (3 mg/kg/day, QD 1→3 ip), 132 % T/C; in the data set on P388 leukemia (10 mg/kg/day, QD 1→3 ip) it was 132 % T/C.
Regarding `CCCCCCCCC/C=C/C(=O)N[C@H](C(=O)NC1CC(O)CCNC(=O)/C=C/C(C)NC1=O)[C@@H](C)O` (relative stereo) [Example 4, trans-2-Dodecenoyl-III], the “MST (% T/C)” value was 132 % T/C in the data set with P388 leukemia (1 mg/kg/day, QD 1→3 ip); 118 % T/C with P388 leukemia (3 mg/kg/day, QD 1→3 ip); 118 % T/C in the data set with P388 leukemia (.3 mg/kg/day, QD 1→3 ip).
With `CCCCCCCCCCCC(=O)N[C@H](C(=O)NC1CC(O)CCNC(=O)/C=C/C(C)NC1=O)[C@@H](C)O` (stereo partly drawn) [Example 1, n-Dodecanoyl-III], the “MST (% T/C)” value in the data set with P388 leukemia (0.13 mg/kg/day, QD 1→9 ip) was 127 % T/C; in the data set with P388 leukemia (0.25 mg/kg/day, QD 1→9 ip) it was 132 % T/C; with P388 leukemia (0.5 mg/kg/day, QD 1→9 ip), 145 % T/C; with P388 leukemia (1 mg/kg/day, QD 1→3 ip), 130 % T/C; with P388 leukemia (1 mg/kg/day, QD 1→9 ip), 150 % T/C; with P388 leukemia (2 mg/kg/day, QD 1→9 ip), 159 % T/C. The “MST (% T/C)” value with P388 leukemia (3 mg/kg/day, QD 1→3 ip) stood at 145 % T/C; in the data set with P388 leukemia (4 mg/kg/day, QD 1→9 ip), 173 % T/C; in the data set with P388 leukemia (10 mg/kg/day, QD 1→3 ip), 155 % T/C; in the data set with B16 melanoma (1 mg/kg/day), 121 % T/C; in the data set on B16 melanoma (2 mg/kg/day), 139 % T/C; in the data set on B16 melanoma (4 mg/kg/day), 155 % T/C. Besides, the figures for the “MST (% T/C)” value in the data set with B16 melanoma (.25 mg/kg/day) and in the data set with B16 melanoma (.5 mg/kg/day) were 107 % T/C and 113 % T/C, respectively. The molecule also had an LD50 in the data set on ddy mice of 27 mg/kg.
Take `CCCCCC=CCCC=CC=CC(=O)NC(C(=O)NC1CC(O)CCNC(=O)C=CC(C)NC1=O)C(C)O` (stereo not drawn) [BU-2867T B, reference compound]: the “MST (% T/C)” value in the data set on P388 leukemia (0.13 mg/kg/day, QD 1→9 ip) was 125 % T/C; in the data set with P388 leukemia (0.25 mg/kg/day, QD 1→9 ip), 130 % T/C; in the data set on P388 leukemia (0.5 mg/kg/day, QD 1→9 ip) it was 145 % T/C; in the data set on P388 leukemia (0.63 mg/kg/day, QD 1→9 ip), 130 % T/C; in the data set with P388 leukemia (1 mg/kg/day, QD 1→9 ip) it was 170 % T/C; in the data set on P388 leukemia (2 mg/kg/day, QD 1→9 ip) it was 180 % T/C. Besides, the “MST (% T/C)” value in the data set with P388 leukemia (4 mg/kg/day, QD 1→9 ip) is listed as “Tox”; in the data set on B16 melanoma (1 mg/kg/day), 126 % T/C; with B16 melanoma (2 mg/kg/day), “Tox”; with B16 melanoma (.13 mg/kg/day) it was 108 % T/C; with B16 melanoma (.25 mg/kg/day) it was 111 % T/C; in the data set on B16 melanoma (.5 mg/kg/day) it was 118 % T/C.
